Assay results as given in US11717476B2, “Moringa peregrina seed extract rich in 2,5-diformylfuran, process for obtaining same and use thereof in cosmetic compositions” (priority 2020, dated 2023).

Tests used:
[1] = system: telomerase; assay: Telomerase activity in adult keratinocytes in monolayer culture (PCR-ELISA kit); assay type: cell-based, human; settings: 100 ng/ml; 24 hours
Protocol: Protocol: Human keratinocytes were obtained from a donor. To perform the experiments, the keratinocytes were used at a low passage level (i.e., cell isolation passage number 2). The cells were grown as a monolayer until they reached about 75% of confluence before being used in the experiment. Reference product: FK228 at 100 ng/ml was used as a reference inducer of telomerase 1 activity. Incubation protocol: […] At the end of the incubation period, the telomerase was extracted from the cells and its activity was determined by means of a specific, sensitive kit. The principle of the telomerase kit is to measure the telomerase activity by coupling a PCR step (in which telomerase functions as regards its elongation activity) with an ELISA step for semi-quantitative determination of amounts of telomerase elongation product. The results are expressed in arbitrary units for the telomerase activity level (mean±S.D). The significance level between the “vehicle” and the “reference product” was evaluated by means of a Student's t test (*: p<0.05). The significance level between “control” and “test compound” was evaluated independently for each product by a one-way analysis of variance (one-way ANOVA) followed by a Holm-Sidak test (*: p<0.05).

[2] = molecular target: T1, phospholipase A2 (Homo sapiens, UniProt P39877); assay: sPLA2 (type V) Inhibitor Screening Assay Kit; assay type: biochemical; settings: 1 mg in 100 μl
T1 construct: purchased
T1 sequence (P39877 21-138): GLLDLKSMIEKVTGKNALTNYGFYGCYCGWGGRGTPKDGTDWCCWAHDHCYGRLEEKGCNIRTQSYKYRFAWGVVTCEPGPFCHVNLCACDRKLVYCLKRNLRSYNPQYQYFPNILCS
Source text: The object of this study is to evaluate the modulation of the […] activity of the enzyme phospholipase A2 by one or more samples in an in vitro acellular model by means of the “SPLA2 (type V) Inhibitor Screening Assay Kit”. Phospholipase A2 is a key enzyme upstream of the inflammatory process which is triggered by the arachidonic cascade. A buffered solution of phospholipase A2 reacts with a specific substrate, diheptanoyl thio-PC, and transforms it into a compound which binds to a chromogen, DTNB, with agitation at room temperature. The phospholipase A2 activity may thus be evaluated by measuring the absorbance at 413 nm. […] The substrate transformed by the enzyme is stained by means of the chromogen DTNB by agitation at room temperature. […] The modulation of this activity is expressed as a percentage of inhibition or of activation of the phospholipase A2 activity in the absence of the active agent, i.e. only in the presence of the enzyme substrate (diheptanoyl thio-PC).
At the end of the incubation period, the activity of the enzyme phospholipase A2 with and without the test product or the reference product is evaluated by measuring the absorbance of the reaction media at 413 nm. For each concentration tested, the modulation of the phospholipase A2 enzymatic activity with the test product is calculated according to the following formula. […]

`C/C=C1\NC(=O)[C@H]2CSSCC/C=C/[C@H](CC(=O)N[C@H](C(C)C)C(=O)N2)OC(=O)[C@H](C(C)C)NC1=O` [FK228] was tested, and the “increase of telomerase activity” value [1] was 28.0%.
In the case of `CCCCCCCCCCCCCCCCSC[C@H](COP(=O)(O)OCC[N+](C)(C)C)NC(=O)CCCCCCCCCCCCCCC` [thioetheramide-PC], the “inhibition of PLA2 activity” value [2] is reported as 93%.
